Holding throughout (format): cell-based
Conditions in all cases: 1.0×10^−5 molal concentration (M)

One test has as its system OVCAR-4. The test can be described thus: in vitro test at 1.0×10^−5 M, Ovary cancer cell.
The test system of a further test is UACC-257. Briefly: in vitro test at 1.0×10^−5 M, Skin cancer cell.
A further test relates to UACC-62. Briefly: in vitro test at 1.0×10^−5 M, Skin cancer cell.

As to `CCc1nc2ccc3c(c2[nH]1)C(=O)c1ccccc1C3=O` [No. 4, 2-Ethyl-1(3)H-anthra[1,2-d]imidazole-6,11-dione], the “inhibition effect on cancer cell line (Table 2 value)” value in the test on OVCAR-4 is listed as 48.81; with UACC-257 it was 39.69; with UACC-62 it was 51.35.

Source of the values: patent publication US8445492B2, “Method for inhibiting growth of cancer cells and cell telomere and diseases of cell proliferation by using heteroannelated anthraquinone derivative compounds” (National Defense Medical Center, priority 2008, dated 2013).
